How the values were obtained:
KBalb cells [1] = experiment: MTT cell proliferation assay, KBalb; assay type: cell-based, mouse; settings: KBalb (mutated p21Ras), 48 h, inhibitor concentration as in Table 3
Experimental: (§1) FIGS. 1A-1C show effects of different PKC isoform inhibitors on proliferation of mouse fibroblast cells and human pancreatic cells. Cells were grown to 80% confluence in 96-well plates, then treated with the inhibitors at the concentrations indicated in Table I. The corresponding solvents with equivalent volume were used as vehicle controls. After 48 h treatment, cell proliferation was evaluated by MTT assay. Results are presented as the means ±SD. Statistical significance was determined using a paired Student's t-test, and p-values ≦0.05 were considered significant. […] Nuclear-free lysates containing a total of 400 μg protein from each indicated cell type were used for analysis of Ras activity by Raf-RBD pull down.
(§2) All inhibitors were dissolved in dimethyl sulfoxide for use, and their effects were measured relative to dimethyl sulfoxide (vehicle)-treated controls.
(§3) Cell Culture and Treatment. NIH/3T3 and Balb cell lines were obtained from ATCC (American Type Culture Collection, Rockville, Md.). NIH/3T3-Ras cells were produced by stable transfection of v-Harvey ras, and selected and maintained in 0.5 mg/ml of Geneticin (Gibco BRL, Gaithersburg, Md.). Ki-v-ras-Balb (KBalb) cells were produced by stable infection of Balb with retroviral vector stocks containing v-Kirsten ras, and were selected and maintained with Geneticin. The human pancreatic tumor lines Hs 766s, BxPC-3 and MIA PaCa-2, were obtained from ATCC. All cell lines were maintained in Dulbecco Modified Eagle medium (DMEM) (Gibco BRL) supplemented with 2 mM 1-glutamine, 100 U/ml of penicillin, and 100 μg/ml of streptomycin (Gibco BRL). […] Cell proliferation was assessed using an MTT [3-(4,5-dimethylthiazol-2-yl)-2,5-diphenyltetrazolium bromide] assay (Roche, Mannheim, Germany). […] The optical densities were quantified at a test wavelength of 550 nm and a reference wavelength of 630 nm on a multiwell spectrophotometer. siRNA Knockdown of PKCδ. siRNA duplexes (siRNAs) were obtained from Qiagen (Valencia, Calif.). […]

MIA PaCa-2 cells = experiment: MTT cell proliferation assay, MIA PaCa-2; assay type: cell-based, human; settings: MIA PaCa-2 (mutated p21Ras), 48 h, inhibitor concentration as in Table 3
Experimental: as §1, §2, §3

KBalb cells [2] = experiment: Apoptotic (hypodiploid) fraction by propidium iodide flow cytometry, KBalb; assay type: cell-based, mouse; settings: 60 h
Experimental: (§4) FIGS. 4A-4D show activation of apoptosis by individual p21^Ras-effector pathways. […] Cells were fixed and stained with propidium iodide, and the apoptotic (hypodiploid) fractions were evaluated by PI staining and flow cytometric analysis using the FL2-H channel. Cells transfected with the empty pSG5 vector served as negative controls. […] NIH/3T3 cells were pre-treated for 30 minutes with Ly294002 (10 μM) before rottlerin (20 μM) was added. The apoptotic (hypodiploid) fractions were evaluated 60 h later. […] The apoptotic (hypodiploid) fractions were evaluated 60 h later. Cells were fixed and stained with propidium iodide. DNA fragmentation was analyzed by flow cytometry using the FL2-H channel.
Cell Culture and Treatment. NIH/3T3 and Balb cell lines were obtained from ATCC (American Type Culture Collection, Rockville, Md.). […] Cell proliferation was assessed using an MTT [3-(4,5-dimethylthiazol-2-yl)-2,5-diphenyltetrazolium bromide] assay (Roche, Mannheim, Germany). […] The optical densities were quantified at a test wavelength of 550 nm and a reference wavelength of 630 nm on a multiwell spectrophotometer. siRNA Knockdown of PKCδ. siRNA duplexes (siRNAs) were obtained from Qiagen (Valencia, Calif.). […] PKCδ protein levels were determined by immunoblot analysis. […] PKCδ activity was measured with an assay kit (Upstate Cell Signaling). […]

NIH/3T3 cells = experiment: Apoptotic (hypodiploid) fraction by propidium iodide flow cytometry, NIH/3T3 cells expressing Ras effectors or effector mutants; assay type: cell-based, mouse
Experimental: as §4
Cell Culture and Treatment. NIH/3T3 and Balb cell lines were obtained from ATCC (American Type Culture Collection, Rockville, Md.). NIH/3T3-Ras cells were produced by stable transfection of v-Harvey ras, and selected and maintained in 0.5 mg/ml of Geneticin (Gibco BRL, Gaithersburg, Md.). Ki-v-ras-Balb (KBalb) cells were produced by stable infection of Balb with retroviral vector stocks containing v-Kirsten ras, and were selected and maintained with Geneticin. The human pancreatic tumor lines Hs 766s, BxPC-3 and MIA PaCa-2, were obtained from ATCC. All cell lines were maintained in Dulbecco Modified Eagle medium (DMEM) (Gibco BRL) supplemented with 2 mM 1-glutamine, 100 U/ml of penicillin, and 100 μg/ml of streptomycin (Gibco BRL). Media was additionally supplemented with 10% DCS (NIH/3T3, NIH/3T3-Ha-v-Ras, Balb/3T3, Ki-v-ras-Balb, and Balb-myc), or 10% FBS (BxPC-3, MIA PaCa-2). Cells were cultured at 37° C. and 5% CO2. Cell Proliferation Assay. Cell proliferation was assessed using an MTT [3-(4,5-dimethylthiazol-2-yl)-2,5-diphenyltetrazolium bromide] assay (Roche, Mannheim, Germany). […] The optical densities were quantified at a test wavelength of 550 nm and a reference wavelength of 630 nm on a multiwell spectrophotometer. siRNA Knockdown of PKCδ. siRNA duplexes (siRNAs) were obtained from Qiagen (Valencia, Calif.). […] PKCδ protein levels were determined by immunoblot analysis. […] PKCδ activity was measured with an assay kit (Upstate Cell Signaling). […] Immunocomplexes were washed three times with the kinase buffer (20 mM Tris-HCl, 10 mM MgCl2, pH 7.5) and then incubated with a PKC-specific peptide substrate, [γ-^33P]ATP, and inhibitors of cAMP-dependent kinase and calmodulin kinase for 10 min at 30° C. ^33P incorporated into the substrate was separated from residual ^33P using p81 filters and subsequently quantified by scintillation counting. β-actin antibody was used as negative control in immunoprecipitations. p21^Ras Activity Assays. […]

PKCδ [3] = experiment: Immunoblot analysis of PKCδ protein levels; assay type: cell-based; settings: 20 μM, 48 h, all cell lines tested
Experimental: (§5) Cell Culture and Treatment. NIH/3T3 and Balb cell lines were obtained from ATCC (American Type Culture Collection, Rockville, Md.). NIH/3T3-Ras cells were produced by stable transfection of v-Harvey ras, and selected and maintained in 0.5 mg/ml of Geneticin (Gibco BRL, Gaithersburg, Md.). Ki-v-ras-Balb (KBalb) cells were produced by stable infection of Balb with retroviral vector stocks containing v-Kirsten ras, and were selected and maintained with Geneticin. The human pancreatic tumor lines Hs 766s, BxPC-3 and MIA PaCa-2, were obtained from ATCC. All cell lines were maintained in Dulbecco Modified Eagle medium (DMEM) (Gibco BRL) supplemented with 2 mM 1-glutamine, 100 U/ml of penicillin, and 100 μg/ml of streptomycin (Gibco BRL). Media was additionally supplemented with 10% DCS (NIH/3T3, NIH/3T3-Ha-v-Ras, Balb/3T3, Ki-v-ras-Balb, and Balb-myc), or 10% FBS (BxPC-3, MIA PaCa-2). Cells were cultured at 37° C. and 5% CO2. Cell Proliferation Assay. Cell proliferation was assessed using an MTT [3-(4,5-dimethylthiazol-2-yl)-2,5-diphenyltetrazolium bromide] assay (Roche, Mannheim, Germany). […] The optical densities were quantified at a test wavelength of 550 nm and a reference wavelength of 630 nm on a multiwell spectrophotometer. siRNA Knockdown of PKCδ. siRNA duplexes (siRNAs) were obtained from Qiagen (Valencia, Calif.). […]

Hs766T cells = experiment: MTT cell proliferation assay, Hs766T; assay type: cell-based, human; settings: Hs766T (wild-type p21Ras), 48 h, 20 μM
Experimental: as §1, §2
(§6) Cell Culture and Treatment. NIH/3T3 and Balb cell lines were obtained from ATCC (American Type Culture Collection, Rockville, Md.). […] Cell proliferation was assessed using an MTT [3-(4,5-dimethylthiazol-2-yl)-2,5-diphenyltetrazolium bromide] assay (Roche, Mannheim, Germany). […] The optical densities were quantified at a test wavelength of 550 nm and a reference wavelength of 630 nm on a multiwell spectrophotometer. siRNA Knockdown of PKCδ. siRNA duplexes (siRNAs) were obtained from Qiagen (Valencia, Calif.). […]

PKCδ [4] = assay type: cell-based
Experimental: as §5

Balb cells = experiment: MTT cell proliferation assay, Balb; assay type: cell-based, mouse; settings: Balb (wild-type p21Ras), 48 h, 20 μM
Experimental: as §1, §2, §6

## CN(C)CCCn1cc(C2=C(c3c[nH]c4ccccc34)C(=O)NC2=O)c2ccccc21 [Bis-1, Bisindolylmaleimide I]
KBalb cells [1]
  cell proliferation (MTT): strongly suppressed the growth
MIA PaCa-2 cells
  cell proliferation (MTT): strongly suppressed the growth

## CCCCCCCCCCCCCCCCOCC(CO)OC (stereo not shown) [HMG]
KBalb cells [1]
  cell proliferation (MTT): strongly suppressed the growth
MIA PaCa-2 cells
  cell proliferation (MTT): strongly suppressed the growth

## O=c1cc(N2CCOCC2)oc2c(-c3ccccc3)cccc12 [LY294002]
KBalb cells [2]; KBalb cells, pre-treatment before rottlerin 20 μM
  apoptosis induced by PKCδ inhibition blocked: 50%
NIH/3T3 cells; NIH/3T3 p110-CAAX, 20 μM pre-treatment 30 min, then rottlerin 20 μM 60 hours
  decrease of apoptosis induced by rottlerin: ~50%

## COc1cccc(-c2cc(=O)c3ccccc3o2)c1N [PD98095]
KBalb cells [2]; cells with activated p21Ras, 10 μM pre-treatment, rottlerin 20 μM, lesser degree than PI3K-inhibition
  suppression of p21Ras-dependent apoptosis: suppressed p21^Ras-dependent apoptosis to some extent

## CC(=O)c1c(O)c(C)c(O)c(Cc2c(O)c3c(c(C(=O)/C=C/c4ccccc4)c2O)OC(C)(C)C=C3)c1O [rottlerin, Rottlerin]
PKCδ [3]
  PKCδ protein levels after rottlerin: suppressed PKCδ levels somewhat
Hs766T cells
  cell proliferation (MTT): stimulated proliferation
PKCδ [4]
  PKCδ activity blocked: greater than 95%
Balb cells
  cell proliferation (MTT): stimulated proliferation
KBalb cells [1]
  cell proliferation (MTT): dramatically and specifically decreased the proliferation
NIH/3T3 cells; 20 μM, 60 h, C40 greatest
  apoptosis in cells expressing p21Ras effector mutants S35, G37, C40: stimulated apoptosis to some extent
NIH/3T3 cells; NIH/3T3 Raf-22W, RIF-CAAX, rottlerin 20 μM, 60 h
  apoptosis in cells expressing Raf or Ral-GEF effectors: induced little apoptosis
NIH/3T3 cells; NIH/3T3 with activated PI3K (p110-CAAX), rottlerin 20 μM, 60 h
  apoptotic frequency: 38.22%
MIA PaCa-2 cells
  cell proliferation (MTT): dramatically and specifically decreased the proliferation

From US20090220503A1, “METHOD FOR TREATING CANCERS WITH INCREASED RAS SIGNALING” (THE TRUSTEES OF BOSTON UNIVERSITY, priority 2006, published 2009)
